Experimental data from patent US20090137664A1, “SAURURUS CERNUUS COMPOUNDS THAT INHIBIT CELLULAR RESPONSES TO HYPOXIA” (priority 2003, published 2009).

Tests used:
[1] = system: HIF-1β protein; experiment: Western blot, HIF-1β protein in T47D nuclear extract; type: cell-based, human
Experimental: Due to the low abundance of HIF-1α protein in whole cell extract, nuclear extract is prepared and the level of HIF-1α protein in the nuclear extract determined by Western blot. Briefly, exponentially grown T47D cells are exposed to compound 2 for 30 minutes. […] Nuclear extracts are prepared from control and treated cells, separated on a SDS/PAGE gel, the separated proteins transferred to a nitrocellulose membrane, incubated with the primary antibodies (anti-HIF-1α, and anti-HIF-1β monoclonal antibodies, Novus Biologicals), secondary antibody biotinylated anti-mouse immunoglobulin G and Vectastain ABC reagent (Vector Laboratories), and developed using ECL reagents (Amersham Biosciences). […] No change in HIF-1β protein level is observed across the treatments. It is reasonable to conclude that the selectivity of compound 2 towards hypoxia-activated HIF-1 is caused by selective blockade of the hypoxic induction of HIF-1 protein.

[2] = system: HL-60(TB); experiment: NCI in vitro cell line screen (SRB), Leukemia HL-60(TB); type: cell-based
Experimental: (§1) For exemplary purposes, an embodiment of the present invention was tested for activity with respect to certain cancer cell lines. The following Tables show results from in vitro 60-cell line antitumor testing from the US National Cancer Institute Developmental Therapeutics Program (NCI-DTP) on compound 2. The testing was in connection with the NCI's In Vitro Cell Line Screening Project (IVCLSP). Detailed information regarding the experiments and their interpretation is available from the NCI.

[3] = system: MOLT-4; experiment: NCI in vitro cell line screen (SRB), Leukemia MOLT-4; type: cell-based
Experimental: as §1

[4] = system: SR; experiment: NCI in vitro cell line screen (SRB), Leukemia SR; type: cell-based
Experimental: as §1

[5] = system: EKVX; experiment: NCI in vitro cell line screen (SRB), Non-Small Cell Lung Cancer EKVX; type: cell-based
Experimental: as §1

[6] = system: HOP-62; experiment: NCI in vitro cell line screen (SRB), Non-Small Cell Lung Cancer HOP-62; type: cell-based
Experimental: as §1

[7] = system: NCI-H460; experiment: NCI in vitro cell line screen (SRB), Non-Small Cell Lung Cancer NCI-H460; type: cell-based
Experimental: as §1

[8] = system: SK-MEL-2; experiment: NCI in vitro cell line screen (SRB), Melanoma SK-MEL-2; type: cell-based
Experimental: as §1

[9] = system: ACHN; experiment: NCI in vitro cell line screen (SRB), Renal Cancer ACHN; type: cell-based
Experimental: as §1

[10] = system: SN12C; experiment: NCI in vitro cell line screen (SRB), Renal Cancer SN12C; type: cell-based
Experimental: as §1

[11] = system: MDA-MB-231/ATCC; experiment: NCI in vitro cell line screen (SRB), Breast Cancer MDA-MB-231/ATCC; type: cell-based
Experimental: as §1

[12] = Homo sapiens, read-out: LC50 (the source's name)

Compound: COc1ccc([C@@H](O)[C@@H](C)Oc2ccc([C@H]3O[C@H](c4ccc(O[C@H](C)[C@H](O)c5ccc6c(c5)OCO6)c(OC)c4)[C@H](C)[C@H]3C)cc2OC)cc1OC [Compound 2, manassantin B]
- HIF-1β protein level [1]: No change
- TGI [2]: >1.00E−4 Molar
- GI50 ([2]; Homo sapiens): > 100 µM
- CC50 [2, 12]: > 100 µM
- Mean Optical Densities ([2]; Log10 Concentration −4.0 Molar): 0.426
- Percent Growth ([2]; Log10 Concentration −4.0 Molar): 58%
- Mean Optical Densities ([2]; Log10 Concentration −5.0 Molar): 0.491
- Percent Growth ([2]; Log10 Concentration −5.0 Molar): 76%
- Mean Optical Densities ([2]; Log10 Concentration −6.0 Molar): 0.555
- Percent Growth ([2]; Log10 Concentration −6.0 Molar): 93%
- Mean Optical Densities ([2]; Log10 Concentration −7.0 Molar): 0.543
- Percent Growth ([2]; Log10 Concentration −7.0 Molar): 90%
- Mean Optical Densities ([2]; Log10 Concentration −8.0 Molar): 0.469
- Percent Growth ([2]; Log10 Concentration −8.0 Molar): 70%
- TGI [3]: >1.00E−4 Molar
- GI50 ([3]; Homo sapiens): 44.7 µM
- LC50 (concentration killing 50% of cells) ([3]; Homo sapiens): > 100 µM
- Mean Optical Densities ([3]; Log10 Concentration −4.0 Molar): 0.416
- Percent Growth ([3]; Log10 Concentration −4.0 Molar): 47%
- Mean Optical Densities ([3]; Log10 Concentration −5.0 Molar): 0.462
- Percent Growth ([3]; Log10 Concentration −5.0 Molar): 55%
- Mean Optical Densities ([3]; Log10 Concentration −6.0 Molar): 0.685
- Percent Growth ([3]; Log10 Concentration −6.0 Molar): 90%
- Mean Optical Densities ([3]; Log10 Concentration −7.0 Molar): 0.646
- Percent Growth ([3]; Log10 Concentration −7.0 Molar): 84%
- Mean Optical Densities ([3]; Log10 Concentration −8.0 Molar): 0.646
- Percent Growth ([3]; Log10 Concentration −8.0 Molar): 84%
- TGI [4]: >1.00E−4 Molar
- CC50 [4, 12]: > 100 µM
- Mean Optical Densities ([4]; Log10 Concentration −4.0 Molar): 0.429
- Percent Growth ([4]; Log10 Concentration −4.0 Molar): 22%
- Mean Optical Densities ([4]; Log10 Concentration −5.0 Molar): 0.561
- Percent Growth ([4]; Log10 Concentration −5.0 Molar): 39%
- Mean Optical Densities ([4]; Log10 Concentration −6.0 Molar): 0.685
- Percent Growth ([4]; Log10 Concentration −6.0 Molar): 54%
- Mean Optical Densities ([4]; Log10 Concentration −7.0 Molar): 0.637
- Percent Growth ([4]; Log10 Concentration −7.0 Molar): 48%
- Mean Optical Densities ([4]; Log10 Concentration −8.0 Molar): 0.616
- Percent Growth ([4]; Log10 Concentration −8.0 Molar): 46%
- TGI [5]: 8.25E−5 Molar
- GI50 ([5]; Homo sapiens): 2510 nM
- CC50 [5, 12]: > 100 µM
- Mean Optical Densities ([5]; Log10 Concentration −4.0 Molar): 0.970
- Percent Growth ([5]; Log10 Concentration −4.0 Molar): −2%
- Mean Optical Densities ([5]; Log10 Concentration −5.0 Molar): 1.180
- Percent Growth ([5]; Log10 Concentration −5.0 Molar): 25%
- Mean Optical Densities ([5]; Log10 Concentration −6.0 Molar): 1.479
- Percent Growth ([5]; Log10 Concentration −6.0 Molar): 66%
- Mean Optical Densities ([5]; Log10 Concentration −7.0 Molar): 1.478
- Percent Growth ([5]; Log10 Concentration −7.0 Molar): 66%
- Mean Optical Densities ([5]; Log10 Concentration −8.0 Molar): 1.447
- Percent Growth ([5]; Log10 Concentration −8.0 Molar): 62%
- TGI [6]: >1.00E−4 Molar
- GI50 ([6]; Homo sapiens): 57.3 µM
- CC50 [6, 12]: > 100 µM
- Mean Optical Densities ([6]; Log10 Concentration −4.0 Molar): 0.739
- Percent Growth ([6]; Log10 Concentration −4.0 Molar): 44%
- Mean Optical Densities ([6]; Log10 Concentration −5.0 Molar): 0.893
- Percent Growth ([6]; Log10 Concentration −5.0 Molar): 68%
- Mean Optical Densities ([6]; Log10 Concentration −6.0 Molar): 0.971
- Percent Growth ([6]; Log10 Concentration −6.0 Molar): 81%
- Mean Optical Densities ([6]; Log10 Concentration −7.0 Molar): 0.982
- Percent Growth ([6]; Log10 Concentration −7.0 Molar): 82%
- Mean Optical Densities ([6]; Log10 Concentration −8.0 Molar): 0.924
- Percent Growth ([6]; Log10 Concentration −8.0 Molar): 73%
- TGI [7]: >1.00E−4 Molar
- GI50 ([7]; Homo sapiens): 2120 nM
- LC50 (concentration killing 50% of starting cells) ([7]; Homo sapiens): > 100 µM
- Mean Optical Densities ([7]; Log10 Concentration −4.0 Molar): 0.285
- Percent Growth ([7]; Log10 Concentration −4.0 Molar): 11%
- Mean Optical Densities ([7]; Log10 Concentration −5.0 Molar): 0.492
- Percent Growth ([7]; Log10 Concentration −5.0 Molar): 28%
- Mean Optical Densities ([7]; Log10 Concentration −6.0 Molar): 0.895
- Percent Growth ([7]; Log10 Concentration −6.0 Molar): 61%
- Mean Optical Densities ([7]; Log10 Concentration −7.0 Molar): 1.030
- Percent Growth ([7]; Log10 Concentration −7.0 Molar): 72%
- Mean Optical Densities ([7]; Log10 Concentration −8.0 Molar): 1.011
- Percent Growth ([7]; Log10 Concentration −8.0 Molar): 70%
- TGI [8]: >1.00E−4 Molar
- GI50 ([8]; Homo sapiens): > 100 µM
- CC50 [8, 12]: > 100 µM
- Mean Optical Densities ([8]; Log10 Concentration −4.0 Molar): 0.764
- Percent Growth ([8]; Log10 Concentration −4.0 Molar): 54%
- Mean Optical Densities ([8]; Log10 Concentration −5.0 Molar): 0.928
- Percent Growth ([8]; Log10 Concentration −5.0 Molar): 78%
- Mean Optical Densities ([8]; Log10 Concentration −6.0 Molar): 1.066
- Percent Growth ([8]; Log10 Concentration −6.0 Molar): 98%
- Mean Optical Densities ([8]; Log10 Concentration −7.0 Molar): 0.900
- Percent Growth ([8]; Log10 Concentration −7.0 Molar): 74%
- Mean Optical Densities ([8]; Log10 Concentration −8.0 Molar): 1.020
- Percent Growth ([8]; Log10 Concentration −8.0 Molar): 92%
- TGI [9]: 5.02E−5 Molar
- GI50 ([9]; Homo sapiens): 1820 nM
- CC50 [9, 12]: > 100 µM
- Mean Optical Densities ([9]; Log10 Concentration −4.0 Molar): 0.297
- Percent Growth ([9]; Log10 Concentration −4.0 Molar): −5%
- Mean Optical Densities ([9]; Log10 Concentration −5.0 Molar): 0.351
- Percent Growth ([9]; Log10 Concentration −5.0 Molar): 11%
- Mean Optical Densities ([9]; Log10 Concentration −6.0 Molar): 0.554
- Percent Growth ([9]; Log10 Concentration −6.0 Molar): 64%
- Mean Optical Densities ([9]; Log10 Concentration −7.0 Molar): 0.644
- Percent Growth ([9]; Log10 Concentration −7.0 Molar): 88%
- Mean Optical Densities ([9]; Log10 Concentration −8.0 Molar): 0.590
- Percent Growth ([9]; Log10 Concentration −8.0 Molar): 73%
- TGI [10]: >1.00E−4 Molar
- GI50 ([10]; Homo sapiens): 35.2 µM
- CC50 [10, 12]: > 100 µM
- Mean Optical Densities ([10]; Log10 Concentration −4.0 Molar): 0.594
- Percent Growth ([10]; Log10 Concentration −4.0 Molar): 42%
- Mean Optical Densities ([10]; Log10 Concentration −5.0 Molar): 0.669
- Percent Growth ([10]; Log10 Concentration −5.0 Molar): 59%
- Mean Optical Densities ([10]; Log10 Concentration −6.0 Molar): 0.723
- Percent Growth ([10]; Log10 Concentration −6.0 Molar): 72%
- Mean Optical Densities ([10]; Log10 Concentration −7.0 Molar): 0.775
- Percent Growth ([10]; Log10 Concentration −7.0 Molar): 84%
- Mean Optical Densities ([10]; Log10 Concentration −8.0 Molar): 0.770
- Percent Growth ([10]; Log10 Concentration −8.0 Molar): 82%
- TGI [11]: 4.74E−5 Molar
- GI50 ([11]; Homo sapiens): 968 nM
- CC50 [11, 12]: > 100 µM
- Mean Optical Densities ([11]; Log10 Concentration −4.0 Molar): 0.384
- Percent Growth ([11]; Log10 Concentration −4.0 Molar): −7%
- Mean Optical Densities ([11]; Log10 Concentration −5.0 Molar): 0.457
- Percent Growth ([11]; Log10 Concentration −5.0 Molar): 14%
- Mean Optical Densities ([11]; Log10 Concentration −6.0 Molar): 0.569
- Percent Growth ([11]; Log10 Concentration −6.0 Molar): 50%
- Mean Optical Densities ([11]; Log10 Concentration −7.0 Molar): 0.630
- Percent Growth ([11]; Log10 Concentration −7.0 Molar): 69%
- Mean Optical Densities ([11]; Log10 Concentration −8.0 Molar): 0.640
- Percent Growth ([11]; Log10 Concentration −8.0 Molar): 72%
